Tests used:
[1] = target: T1, ABCB1 transporter (Homo sapiens, UniProt P08183); test: HOE (Hoechst 33342) accumulation in MDCKII-ABCB1 cells; format: cell-based; details: 8 µM HOE, end-point fluorescence at 30 min, 50% of each compound's own maximum inhibitory activity, read-out: IC50, inhibition of ABCB1-mediated efflux of HOE
T1 construct: expressed in transfected cells; host or cells: MDCKII (canine kidney) cells transduced with human ABCB1, from Prof; Piet Borst and Dr. Alfred Schinkel (The Netherlands Cancer Institute)
T1 sequence (P08183 whole entry): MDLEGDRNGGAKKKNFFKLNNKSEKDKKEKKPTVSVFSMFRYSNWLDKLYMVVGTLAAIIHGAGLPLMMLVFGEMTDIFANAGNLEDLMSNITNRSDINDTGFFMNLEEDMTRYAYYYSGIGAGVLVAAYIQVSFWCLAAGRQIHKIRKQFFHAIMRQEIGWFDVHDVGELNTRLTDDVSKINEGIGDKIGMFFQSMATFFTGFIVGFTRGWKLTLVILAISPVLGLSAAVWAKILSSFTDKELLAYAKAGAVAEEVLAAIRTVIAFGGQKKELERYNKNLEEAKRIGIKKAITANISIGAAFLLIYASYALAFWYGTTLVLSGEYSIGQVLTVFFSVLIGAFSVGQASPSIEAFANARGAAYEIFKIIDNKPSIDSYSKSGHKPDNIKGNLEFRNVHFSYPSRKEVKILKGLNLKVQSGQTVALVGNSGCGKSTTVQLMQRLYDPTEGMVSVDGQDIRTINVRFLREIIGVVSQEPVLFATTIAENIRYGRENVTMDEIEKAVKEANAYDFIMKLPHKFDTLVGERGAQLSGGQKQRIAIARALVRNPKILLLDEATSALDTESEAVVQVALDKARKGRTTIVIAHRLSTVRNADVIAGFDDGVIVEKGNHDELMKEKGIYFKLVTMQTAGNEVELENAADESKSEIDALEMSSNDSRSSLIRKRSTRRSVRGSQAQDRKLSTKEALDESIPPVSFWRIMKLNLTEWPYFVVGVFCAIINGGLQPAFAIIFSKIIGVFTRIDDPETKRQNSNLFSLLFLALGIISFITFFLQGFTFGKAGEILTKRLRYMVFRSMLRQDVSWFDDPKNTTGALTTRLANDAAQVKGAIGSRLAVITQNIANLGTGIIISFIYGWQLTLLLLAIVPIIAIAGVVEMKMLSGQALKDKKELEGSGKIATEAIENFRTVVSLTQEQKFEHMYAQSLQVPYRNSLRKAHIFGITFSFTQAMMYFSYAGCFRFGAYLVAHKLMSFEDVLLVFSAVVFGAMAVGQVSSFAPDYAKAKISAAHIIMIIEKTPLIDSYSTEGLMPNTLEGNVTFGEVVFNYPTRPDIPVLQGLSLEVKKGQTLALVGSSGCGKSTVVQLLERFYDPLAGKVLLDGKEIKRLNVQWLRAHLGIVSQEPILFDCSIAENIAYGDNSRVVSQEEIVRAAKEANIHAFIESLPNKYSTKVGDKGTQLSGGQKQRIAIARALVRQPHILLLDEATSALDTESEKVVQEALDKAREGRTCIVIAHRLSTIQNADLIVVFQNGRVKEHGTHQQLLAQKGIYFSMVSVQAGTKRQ
Experimental: (§1) To investigate the inhibitory activity of CDKi on ABCB1, the intracellular accumulation of HOE, a fluorescent ABCB1 substrate, was examined in both MDCKII-ABCB1 and MDCKII parent cell lines in the presence and absence of the tested compounds. The reduction in fluorescence intensity in ABCB1-transduced cells indicates the efflux activity of the ABCB1 transporter, its inhibition increases HOE accumulation and thus the intracellular fluorescence.
(§2) The assay was conducted as previously described and optimized for application in ABCB1-expressing cells. Briefly, MDCKII-ABCB1 and MDCKII parent cells were seeded at 5×10^4 cells per well on a 96-well culture plate and used for accumulation experiments after 24 h cultivation. The medium was removed and cells were washed twice with prewarmed phosphate buffered saline (PBS) at pH 7.4.

[2] = target: T2, ABCB1 (Homo sapiens, UniProt P08183); test: as above; format: cell-based; parameters: expressed in transfected cells; host or cells: MDCKII (canine kidney) cells transduced with human ABCB1, from Prof; Piet Borst and Dr. Alfred Schinkel (The Netherlands Cancer Institute); details: human, probe Hoechst 33342 (HOE), 8 µM, CDKi applied at their respective IC50 concentrations, % as strongly as LY, read-out: Inhibition of HOE efflux relative to LY
T2 sequence (P08183 whole entry): as above
Experimental: as §1, §2

[3] = target: T1, ABCB1 transporter; test: DNR accumulation in MDCKII-ABCB1 cells (flow cytometry), normalized to parental MDCKII; format: cell-based; details: 1 - 20 µM CDKi, 2 µM DNR
Experimental: Briefly, MDCKII-ABCB1 and MDCKII parent cells were seeded at 1.5×10^5 cells per well on a 12-well plate 24 h before the experiment. The medium was removed and the cells were washed with prewarmed PBS. The cells were then preincubated in Opti-MEM, with or without CDKi or LY at 37°C in 5% CO2 for 30 min. […] Accumulation was stopped by cooling the samples on ice, removing the medium and washing twice with ice-cold PBS. The cells were then detached from the plates with 10× trypsin-EDTA, resuspended in PBS with 2% FBS and transferred to Eppendorf tubes, which were placed on ice until analysis. […] The median fluorescence (MF) intensity of 10,000 measured cells was used to compare the fluorescence resulting from each of the treatments. […] The MF intensity of untreated cells was subtracted from fluorescence values obtained for all the measured samples.
To quantify the inhibitory effect of each tested compound on the ABCB1 transporter in the MDCKII-ABCB1 cell line, the ratio between the MF intensity with or without inhibitor was calculated and normalized to the effect in the parental MDCKII cell line according to the following equation [30]: [drawing 1]

[4] = tested on: mouse P-glycoprotein; parameters: method as in PMID 15338193; details: cited from earlier work
[5] = target: T2, ABCB1; test: ABCB1-ATPase activation assay (baseline), Sf9 membranes; format: biochemical; parameters: purchased Solvo Biotechnology (Szeged, Hungary); host or cells: Sf9 insect cell membranes; details: from ATPase activity in Sf9 membranes overexpressing human ABCB1
Experimental: (§3) The drug efflux function of ABCB1 is linked to hydrolysis of ATP by ATPase, which is stimulated in the presence of ABCB1 substrates. In the activation assay, transported substrates can stimulate baseline vanadate-sensitive ATPase activity, whereas in the inhibition assay, which is carried out in the presence of a known activator of the transporter, inhibitors may reduce the maximal vanadate-sensitive ATPase activity. ATPase activity was measured by assessing the amount of phosphate liberated from ATP by the ABCB1 transporter using the […] ATPase kit for ABCB1 according to the manufacturer’s instructions. For this purpose, Sf9 cell membranes (4 µg protein per well) were mixed with each of the test compounds (singly) in solutions with concentrations ranging from 140 nM to 300 µM, then incubated at 37°C for 10 min in the presence or absence of 1.2 mM sodium orthovanadate. The reaction was started by adding 10 mM ATP solution (magnesium salt) to the reaction mixture, stopped 10 min later, and the absorbance at 590 nm was measured after a further 30 min incubation (GeniosPlus apparatus; Tecan, Männedorf, Switzerland). The ATPase activity in each sample was determined as the difference in liberated amounts of phosphate measured in the presence and absence of 1.2 mM sodium orthovanadate. Phosphate standards were prepared in each plate and verapamil served as a positive control for ABCB1 stimulation. The results are expressed as vanadate-sensitive ATPase activities.

[6] = target: T2, ABCB1; test: ABCB1-ATPase inhibition assay (verapamil-stimulated), Sf9 membranes; format: biochemical; parameters: purchased Solvo Biotechnology (Szeged, Hungary); host or cells: Sf9 insect cell membranes; details: 140 nM to 300 µM
Experimental: as §3

**Q.** Which IC50 [1] does the source give for `CC(C)(C)c1cnc(CSc2cnc(NC(=O)C3CCNCC3)s2)o1` [SNS-032] here?
**A.** 14.6 µM

**Q.** And the inhibition at 30 min [2]?
**A.** 23%

**Q.** What about the “Inhibition of DNR efflux/accumulation across applied range” value [3] of the same compound?
**A.** did not inhibit DNR accumulation at any tested concentration

**Q.** What about the “Substrate of mouse P-glycoprotein (brain levels Abcb1 knockout vs wild type mice)” value [4] of the same compound?
**A.** substrate of mouse P-glycoprotein

**Q.** What about the ABCB1 substrate classification [5] of the same compound?
**A.** non-substrates of ABCB1

**Q.** And the “Effect on verapamil-stimulated vanadate-sensitive ATPase activity of ABCB1” value [6]?
**A.** only slightly reduced it at the highest tested concentration
